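Interpolation was linear, between the two tested concentrations surrounding the appropriate level; five concentrations were tested over 48 hours in 96-well plates. GI50: concentration for 50% inhibition of growth.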 The source made the active and inactive calls. No stated cut-off is given here; in the data, active = GI50 up to about 1.1 µM and inactive = higher.
Columns and labels:
Experiment in all cases: DTP human tumour cell line panel, 48 h
[1] = system: 786-0
[2] = system: CCRF-CEM
[3] = system: HCT-15
[4] = system: HOP-92
[5] = system: LOX IMVI
[6] = system: OVCAR-3
[7] = system: OVCAR-4
[8] = system: SF-539
[9] = system: SK-MEL-28
[10] = system: SK-OV-3
[11] = system: SN12C
[12] = system: SNB-19
[13] = system: SNB-75
[14] = system: SW-620
[15] = system: DU-145
[16] = system: MCF7
[17] = system: MDA-MB-231
[18] = system: MDA-N
[19] = system: NCI/ADR-RES

Cc1ccccc1NC(=O)C(=O)C(C(=O)c1ccccc1F)C1OC(=O)c2ccccc21 (stereo unspecified)
GI50 [1]: 16.3 µM (inactive) | GI50 [2]: 10.6 µM (inactive) | GI50 [3]: 24.5 µM | GI50 [4]: 33.3 µM (inactive) | GI50 [5]: 16 µM (inactive) | GI50 [6]: 24.6 µM (inactive) | GI50 [7]: 18.4 µM (inactive) | GI50 [8]: 8.32 µM (inactive) | GI50 [9]: 16.5 µM (inactive) | GI50 [10]: 34.1 µM (inactive) | GI50 [11]: 25 µM (inactive) | GI50 [12]: 10.1 µM (inactive) | GI50 [13]: 8.39 µM (inactive) | GI50 [14]: 34.9 µM (inactive)

[O-][n+]1onc2c1CCC(=N\O)/C2=N/Nc1ccccc1
GI50 [1]: > 100 µM (inactive) | GI50 [2]: > 100 µM (inactive) | GI50 [15]: > 100 µM (inactive) | GI50 [3]: > 100 µM | GI50 [5]: > 100 µM (inactive) | GI50 [16]: > 100 µM (inactive) | GI50 [17]: > 100 µM (inactive) | GI50 [18]: > 100 µM (inactive) | GI50 [19]: > 100 µM (inactive) | GI50 [6]: > 100 µM (inactive) | GI50 [7]: > 100 µM (inactive) | GI50 [8]: > 100 µM (inactive) | GI50 [9]: > 100 µM (inactive) | GI50 [10]: > 100 µM (inactive) | GI50 [11]: > 100 µM (inactive) | GI50 [12]: > 100 µM (inactive) | GI50 [13]: > 100 µM (inactive) | GI50 [14]: > 100 µM (inactive)

CC(O)C(NC(=O)c1ccccc1)C(=O)N(Cc1ccccc1)Cc1ccccc1 (stereo unspecified)
GI50 [1]: > 100 µM (inactive) | GI50 [2]: > 100 µM (inactive) | GI50 [3]: > 100 µM | GI50 [4]: 75.9 µM (inactive) | GI50 [5]: > 100 µM (inactive) | GI50 [6]: > 100 µM (inactive) | GI50 [7]: > 100 µM (inactive) | GI50 [8]: > 100 µM (inactive) | GI50 [9]: > 100 µM (inactive) | GI50 [10]: > 100 µM (inactive) | GI50 [11]: > 100 µM (inactive) | GI50 [12]: > 100 µM (inactive) | GI50 [13]: 47.5 µM (inactive) | GI50 [14]: > 100 µM (inactive)

CC1OC(CC2C=CCc3c(O)c4c(c(O)c32)C(=O)c2ccccc2C4=O)CC(NC(=O)C(F)(F)F)C1O (stereo unspecified)
GI50 [1]: 11.1 µM (inactive) | GI50 [2]: 5.11 µM (inactive) | GI50 [3]: 11.9 µM | GI50 [4]: 2.92 µM (inactive) | GI50 [5]: 6.73 µM (inactive) | GI50 [6]: 6.76 µM (inactive) | GI50 [7]: 2.79 µM (inactive) | GI50 [8]: 3.95 µM (inactive) | GI50 [9]: 4.55 µM (inactive) | GI50 [10]: 10.2 µM (inactive) | GI50 [11]: 5.5 µM (inactive) | GI50 [12]: 4.86 µM (inactive) | GI50 [13]: 2.27 µM (inactive) | GI50 [14]: 14.3 µM (inactive)

N#CC(C(=O)C(=O)Nc1c(Cl)cccc1Cl)c1ccccc1 (stereo unspecified)
GI50 [1]: > 10 µM (inactive) | GI50 [2]: > 10 µM (inactive) | GI50 [3]: > 10 µM | GI50 [4]: > 10 µM (inactive) | GI50 [5]: 0.356 µM (active) | GI50 [6]: > 10 µM (inactive) | GI50 [7]: > 10 µM (inactive) | GI50 [8]: > 10 µM (inactive) | GI50 [9]: > 10 µM (inactive) | GI50 [10]: > 10 µM (inactive) | GI50 [11]: > 10 µM (inactive) | GI50 [12]: > 10 µM (inactive) | GI50 [13]: > 10 µM (inactive) | GI50 [14]: > 10 µM (inactive)

CCOC(=O)c1cc(-c2ccc(OC)cc2)c([N+](=O)[O-])n1C
GI50 [1]: > 10 µM (inactive) | GI50 [2]: > 10 µM (inactive) | GI50 [15]: > 10 µM (inactive) | GI50 [3]: > 10 µM | GI50 [4]: > 10 µM (inactive) | GI50 [18]: 8.91 µM (inactive) | GI50 [19]: > 10 µM (inactive) | GI50 [6]: > 10 µM (inactive) | GI50 [7]: > 10 µM (inactive) | GI50 [8]: > 10 µM (inactive) | GI50 [11]: > 10 µM (inactive) | GI50 [12]: > 10 µM (inactive) | GI50 [13]: > 10 µM (inactive)

Cc1ccc(Sc2ccccc2N)cc1
GI50 [1]: 29.2 µM (inactive) | GI50 [2]: 23.2 µM (inactive) | GI50 [3]: 37.8 µM | GI50 [4]: 22.7 µM (inactive) | GI50 [5]: 36.8 µM (inactive) | GI50 [6]: 44.7 µM (inactive) | GI50 [7]: 46.9 µM (inactive) | GI50 [8]: 29.5 µM (inactive) | GI50 [9]: 67 µM (inactive) | GI50 [10]: > 100 µM (inactive) | GI50 [11]: 41.1 µM (inactive) | GI50 [12]: 38.6 µM (inactive) | GI50 [13]: 44.8 µM (inactive) | GI50 [14]: 49 µM (inactive)

CC(C)(C)c1ccc(OCCOCCOc2ccc(C(C)(C)C)cc2S(=O)(=O)Nc2ccc([N+](=O)[O-])cc2)c(S(=O)(=O)Nc2ccc([N+](=O)[O-])cc2)c1
GI50 [1]: 45.6 µM (inactive) | GI50 [2]: 5.42 µM (inactive) | GI50 [3]: 7.69 µM | GI50 [4]: 4.07 µM (inactive) | GI50 [5]: 23.4 µM (inactive) | GI50 [6]: 7.43 µM (inactive) | GI50 [7]: 33.7 µM (inactive) | GI50 [8]: > 100 µM (inactive) | GI50 [9]: 15.5 µM (inactive) | GI50 [10]: > 100 µM (inactive) | GI50 [11]: 7.19 µM (inactive) | GI50 [12]: 76.4 µM (inactive) | GI50 [13]: 56.6 µM (inactive) | GI50 [14]: 61.8 µM (inactive)

Cc1c(-c2coc(-c3ccc(Cl)cc3)n2)c(=O)n(-c2ccccc2)n1C
GI50 [1]: > 100 µM (inactive) | GI50 [2]: > 100 µM (inactive) | GI50 [3]: > 100 µM | GI50 [4]: > 100 µM (inactive) | GI50 [5]: > 100 µM (inactive) | GI50 [6]: 93.3 µM (inactive) | GI50 [7]: > 100 µM (inactive) | GI50 [8]: > 100 µM (inactive) | GI50 [9]: > 100 µM (inactive) | GI50 [10]: > 100 µM (inactive) | GI50 [11]: > 100 µM (inactive) | GI50 [13]: > 100 µM (inactive)

CC(=O)OCSc1ncnc2c1ncn2CN1CCOCC1
GI50 [1]: 7.91 µM (inactive) | GI50 [2]: 1.98 µM (inactive) | GI50 [3]: 21.1 µM | GI50 [4]: 1.08 µM (active) | GI50 [5]: 2.03 µM (inactive) | GI50 [6]: 7.23 µM (inactive) | GI50 [7]: 23 µM (inactive) | GI50 [8]: 6.82 µM (inactive) | GI50 [9]: > 100 µM (inactive) | GI50 [10]: 2.01 µM (inactive) | GI50 [11]: 60.1 µM (inactive) | GI50 [12]: > 100 µM (inactive) | GI50 [13]: 13.2 µM (inactive) | GI50 [14]: 28.8 µM (inactive)
